Laboratory results taken from publication PMC10779987, “Machine-Learning- and Structure-Based Virtual Screening for Selecting Cinnamic Acid Derivatives as Leishmania major DHFR-TS Inhibitors” (Molecules, 2023).
pIC50: −log10 of the molar value. Read-outs that look alike come from different tables or passages of the source.

Key:
TNBC cells = conditions: read-out: IC50, TNBC cells in vitro; FAK inhibitor; proliferation, invasion, migration; cited from earlier work
HepG2 = conditions: read-out: IC50 cytotoxic activity, HepG2; HepG2 cell line; cited from earlier work
BEL-7402 = conditions: read-out: IC50 cytotoxic activity, BEL-7402; BEL-7402 cell line; cited from earlier work
LmDHFR-TS = biological target: T1, LmDHFR-TS (Leishmania major, UniProt P07382); experiment: LmDHFR-TS enzymatic inhibition assay (spectrophotometric standard DHFR assay); type: biochemical; conditions: for SI (selectivity index): HsDHFR versus LmDHFR-TS
T1 construct: made in house
Description: The determination of IC50 values involved analyzing concentration-response curves within the 0.1–128 μM range, employing spectrophotometric monitoring of enzymatic activity in a standard DHFR assay.
(§1) Purification and kinetic characterization of the recombinant LmDHFR-TS protein were performed according to the previously reported procedures, while HsDHFR protein was obtained from the commercial assay kit (CS0340, Merck KGaA, Darmstadt, Germany). […] These tested compounds were available from our in-house compound library.
(§2) The assay was conducted with either LmDHFR-TS or HsDHFR (2.7 nM), bovine serum albumin (BSA, 1 mg/mL), N-[tris(hydroxymethyl)-methyl]-2-aminoethanesulfonic acid (TES) buffer (100 mM, pH 7.0, 150 mM β-mercaptoethanol, 2 mM ethylenediaminetetraacetic acid (EDTA)), and nicotinamide adenine dinucleotide phosphate (NADPH, 100 μM), along with varying concentrations of the test compounds (0.1–128 μM). The reaction was initiated by adding the substrate (7,8-dihydrofolate (H2F), 20 μM) and monitored for 360 s at 340 nm, measuring the oxidation of NADPH to NADP+. This allowed the determination of the initial reaction rate (Vo) through linear regression analysis of the resulting absorbance profile.

HsDHFR = biological target: T2, HsDHFR (Homo sapiens, UniProt P00374); experiment: HsDHFR enzymatic inhibition assay (spectrophotometric standard DHFR assay); type: biochemical
T2 construct: purchased Merck KGaA CS0340
T2 sequence (P00374 1-187): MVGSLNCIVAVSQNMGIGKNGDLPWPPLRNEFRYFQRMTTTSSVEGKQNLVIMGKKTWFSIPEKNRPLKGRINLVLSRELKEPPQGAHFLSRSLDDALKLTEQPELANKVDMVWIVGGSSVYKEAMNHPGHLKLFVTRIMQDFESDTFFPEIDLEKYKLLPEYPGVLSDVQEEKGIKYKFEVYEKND
Description: Following this, we calculated the selectivity index (SI) based on the results obtained from in vitro tests using the recombinant protein of Homo sapiens (Hs) DHFR.
as §1, §2

Leishmania amastigotes = system: Leishmania amastigotes; set-up: method as in earlier work; conditions: ref 24 (Gouri et al.); read-out: IC50 against Leishmania amastigotes; cited from earlier work
[1] = HsDHFR 2.7 nM, 0.1–128 μM test range, triplicate, read-out: HsDHFR IC50
[2] = recombinant LmDHFR-TS 2.7 nM, 0.1–128 μM test range, triplicate

T1 sequence (P07382 whole entry): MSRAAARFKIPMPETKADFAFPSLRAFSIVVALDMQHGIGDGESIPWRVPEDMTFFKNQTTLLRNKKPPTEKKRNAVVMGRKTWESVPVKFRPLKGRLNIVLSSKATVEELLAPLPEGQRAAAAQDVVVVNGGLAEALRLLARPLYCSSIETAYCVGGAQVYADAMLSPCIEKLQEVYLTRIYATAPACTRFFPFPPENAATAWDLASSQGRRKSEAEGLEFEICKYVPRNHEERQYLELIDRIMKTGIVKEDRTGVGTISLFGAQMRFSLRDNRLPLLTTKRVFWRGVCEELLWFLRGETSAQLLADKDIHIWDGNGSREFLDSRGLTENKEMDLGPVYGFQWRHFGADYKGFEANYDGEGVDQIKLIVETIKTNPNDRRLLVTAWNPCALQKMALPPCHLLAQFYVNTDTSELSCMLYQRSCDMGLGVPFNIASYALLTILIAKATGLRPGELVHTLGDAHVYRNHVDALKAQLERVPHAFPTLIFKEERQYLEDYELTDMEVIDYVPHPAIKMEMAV

| SMILES | pIC50 (LmDHFR-TS) | pIC50 (HsDHFR; [1]) | pIC50 (Leishmania amastigotes) | further results |
| --- | --- | --- | --- | --- |
| CN(C)CCN(C(=O)/C=C/c1c[nH]c2ccccc12)c1ccccn1 [(E)-N-(2-(dimethylamino)ethyl)-3-(1H-indol-3-yl)-N-(pyridin-2-yl) acrylamide] | – | – | – | pIC50 (TNBC cells): 5.08 |
| C[C@H]1CCC/C=C/[C@@H]2C[C@H](O)C[C@H]2[C@H](OC(=O)/C=C/c2ccc(N(C)C)cc2)/C=C/C(=O)O1 [brefeldin A 4-O-(4)-dimethylaminocinnamate] | – | – | – | pIC50 (HepG2): 6.54; pIC50 (BEL-7402): 6.08 |
| O=C(/C=C/c1ccc(O)c2c1[C@H](C(=O)O)[C@@H](c1ccc(O)c(O)c1)O2)O[C@H](Cc1ccc(O)c(O)c1)C(=O)O [Compound 237, lithospermic acid] | 5.12 | 4.65 | – | – |
| COc1ccc(C[C@H]2COC(=O)[C@@H]2Cc2cc(OC)c(O)c(-c3cc(C[C@H]4C(=O)OC[C@@H]4Cc4ccc(OC)c(OC)c4)cc(OC)c3O)c2)cc1OC [Compound 306, diarctigenin] | 5.21 | 4.55 | – | – |
| O=c1c(O)c(-c2ccc(O)c(O)c2)oc2cc(O)cc(O)c12 [quercetin] | – | – | 4.98 | – |
| O=c1cc(-c2ccc(O[C@@H]3O[C@H](CO)[C@@H](O)[C@H](O)[C@H]3O)cc2)oc2cc(O)c([C@@H]3O[C@H](CO)[C@@H](O)[C@H](O)[C@H]3O)c(O)c12 [isovitexin 4′-O-glucoside] | – | 3.90 | – | SI (selectivity index) (LmDHFR-TS): 2.4; LmDHFR-TS IC50 (LmDHFR-TS; [2]): low activity; pIC50 (LmDHFR-TS; recombinant LmDHFR-TS 2.7 nM, 0.1–128 μM test range, triplicate, read-out: LmDHFR-TS IC50): 4.27 |
| C=CC(C)(C)c1cc(/C=C/C(=O)c2ccc(O)cc2)c(OC)cc1O [licochalcone A] | – | – | 6.05 | – |
| COc1cc(C[C@H]2COC(=O)[C@@H]2Cc2cc(OC)c3c(c2)[C@H](CO)[C@@H](c2ccc(O)c(OC)c2)O3)ccc1O [Compound 308, isolappaol A] | 5.00 | 4.35 | – | – |
| C[C@@H]1O[C@@H](OC[C@H]2O[C@@H](Oc3c(-c4ccc(O)c(O)c4)oc4cc(O)cc(O)c4c3=O)[C@H](O)[C@@H](O)[C@@H]2O)[C@H](O)[C@H](O)[C@H]1O [rutin] | 4.38 | 3.72 | – | SI (selectivity index) (LmDHFR-TS): 4.5; LmDHFR-TS IC50 (LmDHFR-TS; [2]): low activity |
| O=c1cc(-c2ccccc2)oc2cc(O)cc(O)c12 [Compound 69, chrysin] | – | – | 4.89 | – |
| COc1ccc([C@@H]2CC(=O)c3c(O)cc(O[C@@H]4O[C@H](CO[C@@H]5O[C@@H](C)[C@H](O)[C@@H](O)[C@H]5O)[C@@H](O)[C@H](O)[C@H]4O)cc3O2)cc1O [Compound 140, hesperidin] | 4.67 | – | – | SI (selectivity index) (LmDHFR-TS): 4.0; LmDHFR-TS IC50 (LmDHFR-TS; [2]): low activity; pIC50 (HsDHFR): 4.06 |
| O=C(O)/C=C/c1ccccc1 [cinnamic acid] | – | – | 6.60 | – |
| O=c1cc(-c2ccc(O)c(O)c2)oc2cc(O)cc(O)c12 [luteolin] | – | – | 5.51 | – |
